In assay [1] the target is Serine/threonine-protein kinase Nek2 (Homo sapiens) (UniProt P51955). The assay can be described thus: Inhibition of NEK2 (unknown origin) at 1 uM by Ambit Kinomescan binding assay relative to control; values are per cent of control.
Assay [2] has as its target Tyrosine-protein kinase CSK (Homo sapiens, UniProt P41240). The assay can be described thus: Inhibition of CSK ACT labeling site harbouring VSDFGLTKEASSTQDTGK in human A-375 cells at 0.05 uM by KiNativ Profiling analysis relative to control. The class given is cell-based.
In assay [3] the target is Interferon-induced, double-stranded RNA-activated protein kinase (Homo sapiens) (UniProt P19525). The assay can be described thus: Inhibition of PKR K2 labeling site in human Huh-7 cells at 10 uM by KiNativ Profiling analysis relative to control. The class given is cell-based.
Assay [4] deals with cAMP-dependent protein kinase catalytic subunit beta (Homo sapiens) (UniProt P22694). The assay can be described thus: Inhibition of PKAC beta (unknown origin) at 10 uM by Ambit Kinomescan binding assay relative to control.
Assay [5] deals with Discoidin domain-containing receptor 2 (Homo sapiens) (UniProt Q16832). As to the kind of experiment: Inhibition of DDR2 (unknown origin) at 10 uM by Ambit Kinomescan binding assay relative to control; values are per cent of control.
Assay [6] has as its system Proto-oncogene tyrosine-protein kinase receptor Ret (Homo sapiens), P07949 [V804M]. The assay can be described thus: Inhibition of RET V804M mutant (unknown origin) at 10 uM by Ambit Kinomescan binding assay relative to control; values are per cent of control.
For assay [7], the target named is T1, Scaffold protein ILK (Homo sapiens) (UniProt Q13418).
T1 sequence (whole entry): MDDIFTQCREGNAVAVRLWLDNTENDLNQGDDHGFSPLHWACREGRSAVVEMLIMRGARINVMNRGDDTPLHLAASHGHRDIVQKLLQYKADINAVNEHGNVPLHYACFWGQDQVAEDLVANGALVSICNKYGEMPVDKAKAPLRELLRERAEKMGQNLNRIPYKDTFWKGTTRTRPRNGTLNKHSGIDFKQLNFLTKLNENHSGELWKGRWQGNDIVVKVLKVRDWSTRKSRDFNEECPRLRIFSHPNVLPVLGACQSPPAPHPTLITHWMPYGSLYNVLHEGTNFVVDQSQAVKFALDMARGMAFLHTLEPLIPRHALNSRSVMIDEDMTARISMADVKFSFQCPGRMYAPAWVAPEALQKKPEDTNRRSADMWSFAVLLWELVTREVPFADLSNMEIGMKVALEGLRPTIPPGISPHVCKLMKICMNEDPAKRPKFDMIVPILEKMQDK
The assay can be described thus: Inhibition of ILK Protein Kinase Domain labeling site in human Huh-7 cells at 1 uM by KiNativ Profiling analysis relative to control. The class given is cell-based.

Assay [8] has as its target T2, Inhibitor of nuclear factor kappa-B kinase subunit epsilon (Homo sapiens) (UniProt Q14164).
T2 sequence (whole entry): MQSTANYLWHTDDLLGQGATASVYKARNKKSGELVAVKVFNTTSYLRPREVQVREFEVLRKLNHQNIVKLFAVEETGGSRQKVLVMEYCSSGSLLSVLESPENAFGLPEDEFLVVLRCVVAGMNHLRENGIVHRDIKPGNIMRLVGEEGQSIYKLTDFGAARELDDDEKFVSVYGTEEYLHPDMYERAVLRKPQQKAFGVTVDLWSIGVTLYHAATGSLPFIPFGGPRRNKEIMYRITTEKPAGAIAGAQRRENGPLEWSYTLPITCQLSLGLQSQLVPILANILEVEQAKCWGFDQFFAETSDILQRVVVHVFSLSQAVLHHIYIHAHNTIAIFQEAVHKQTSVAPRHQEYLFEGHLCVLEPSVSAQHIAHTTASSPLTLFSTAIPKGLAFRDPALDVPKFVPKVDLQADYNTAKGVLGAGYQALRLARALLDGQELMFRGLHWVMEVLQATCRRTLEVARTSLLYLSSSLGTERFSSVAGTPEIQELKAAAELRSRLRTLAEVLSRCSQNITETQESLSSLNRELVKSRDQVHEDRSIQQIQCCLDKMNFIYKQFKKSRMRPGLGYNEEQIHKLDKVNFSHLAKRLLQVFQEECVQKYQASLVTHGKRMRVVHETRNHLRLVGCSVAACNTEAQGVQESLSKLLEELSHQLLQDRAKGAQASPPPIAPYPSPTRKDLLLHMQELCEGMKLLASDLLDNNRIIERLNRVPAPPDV
The assay can be described thus: Inhibition of IKKe Lys2 labeling site in human Huh-7 cell lysate at 1 uM by KiNativ Profiling analysis relative to control. Type of assay: subcellular.

The target in assay [9] is T3, Dual specificity mitogen-activated protein kinase kinase 7 (Homo sapiens) (UniProt O14733).
T3 sequence (whole entry): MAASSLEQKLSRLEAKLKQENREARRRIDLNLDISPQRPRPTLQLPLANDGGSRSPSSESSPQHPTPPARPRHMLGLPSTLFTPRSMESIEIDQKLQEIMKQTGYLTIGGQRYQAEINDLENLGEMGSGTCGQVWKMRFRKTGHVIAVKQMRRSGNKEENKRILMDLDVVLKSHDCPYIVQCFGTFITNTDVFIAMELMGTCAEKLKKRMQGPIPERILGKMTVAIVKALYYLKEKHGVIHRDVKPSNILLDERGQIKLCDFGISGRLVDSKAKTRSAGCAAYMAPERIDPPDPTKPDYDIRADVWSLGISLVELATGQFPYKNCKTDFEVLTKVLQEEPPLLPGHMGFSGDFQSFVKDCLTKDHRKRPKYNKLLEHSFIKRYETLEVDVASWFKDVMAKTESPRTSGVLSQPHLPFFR
The assay can be described thus: Inhibition of MAP2K7 Lys2 labeling site in human Huh-7 cell lysate at 1 uM by KiNativ Profiling analysis relative to control. The class given is subcellular.

The target in assay [10] is Serine/threonine-protein kinase 26 (Homo sapiens) (UniProt Q9P289). As to the kind of experiment: Inhibition of MST4 Lys1 labeling site in human Huh-7 cells at 1 uM by KiNativ Profiling analysis relative to control. Type of assay: cell-based.
For assay [11], the target named is T4, Serine/threonine-protein kinase Chk1 (Homo sapiens) (UniProt O14757).
T4 sequence (whole entry): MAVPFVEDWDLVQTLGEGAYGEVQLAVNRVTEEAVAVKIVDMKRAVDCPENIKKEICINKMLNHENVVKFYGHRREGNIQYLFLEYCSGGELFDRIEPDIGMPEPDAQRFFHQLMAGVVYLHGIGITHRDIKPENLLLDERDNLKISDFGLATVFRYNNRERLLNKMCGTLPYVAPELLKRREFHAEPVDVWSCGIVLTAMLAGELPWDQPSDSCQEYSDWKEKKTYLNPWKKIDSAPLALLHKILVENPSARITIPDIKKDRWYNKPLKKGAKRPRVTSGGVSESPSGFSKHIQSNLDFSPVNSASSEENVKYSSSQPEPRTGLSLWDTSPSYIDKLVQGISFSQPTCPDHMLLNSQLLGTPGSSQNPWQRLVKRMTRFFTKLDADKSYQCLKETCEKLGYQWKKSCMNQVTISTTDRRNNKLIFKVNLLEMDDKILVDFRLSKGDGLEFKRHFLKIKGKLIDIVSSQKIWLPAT
The assay can be described thus: Inhibition of CHK1 Lys2 labeling site in human Huh-7 cells at 1 uM by KiNativ Profiling analysis relative to control. Type of assay: cell-based.

Our source for the residual activity, inhibition and percent of control values is ChEMBL document CHEMBL5696442, “Discovery of type II inhibitors of TGFβ-activated kinase 1 (TAK1) and mitogen-activated protein kinase kinase kinase kinase 2 (MAP4K2)” (J Med Chem, 2015).

Discoidin domain-containing receptor 2 (Homo sapiens), sequence (Q16832 whole entry, the tested form may be a part): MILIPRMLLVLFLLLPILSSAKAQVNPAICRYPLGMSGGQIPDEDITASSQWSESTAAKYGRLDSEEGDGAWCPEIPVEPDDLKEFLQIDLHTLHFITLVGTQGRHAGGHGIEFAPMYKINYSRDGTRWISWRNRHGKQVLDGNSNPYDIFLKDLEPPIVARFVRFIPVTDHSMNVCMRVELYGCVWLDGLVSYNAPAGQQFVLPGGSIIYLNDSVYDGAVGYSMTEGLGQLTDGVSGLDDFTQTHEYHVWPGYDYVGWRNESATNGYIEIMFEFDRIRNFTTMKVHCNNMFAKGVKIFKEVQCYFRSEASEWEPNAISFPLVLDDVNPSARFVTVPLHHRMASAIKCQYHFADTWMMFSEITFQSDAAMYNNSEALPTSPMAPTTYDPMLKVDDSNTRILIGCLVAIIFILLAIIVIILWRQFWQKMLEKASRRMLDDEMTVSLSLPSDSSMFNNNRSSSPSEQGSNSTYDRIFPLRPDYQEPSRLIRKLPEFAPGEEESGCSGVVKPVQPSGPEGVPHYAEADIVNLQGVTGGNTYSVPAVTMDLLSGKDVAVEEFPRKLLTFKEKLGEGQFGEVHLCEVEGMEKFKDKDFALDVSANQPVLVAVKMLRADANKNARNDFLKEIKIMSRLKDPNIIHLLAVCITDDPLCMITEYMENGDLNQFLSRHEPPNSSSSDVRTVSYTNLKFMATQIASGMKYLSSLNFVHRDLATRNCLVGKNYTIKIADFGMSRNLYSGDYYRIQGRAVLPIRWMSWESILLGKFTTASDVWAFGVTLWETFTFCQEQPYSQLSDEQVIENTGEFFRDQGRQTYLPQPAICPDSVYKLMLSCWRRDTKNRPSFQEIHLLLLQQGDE
Serine/threonine-protein kinase 26 (Homo sapiens), sequence (Q9P289 2-416 limits assumed): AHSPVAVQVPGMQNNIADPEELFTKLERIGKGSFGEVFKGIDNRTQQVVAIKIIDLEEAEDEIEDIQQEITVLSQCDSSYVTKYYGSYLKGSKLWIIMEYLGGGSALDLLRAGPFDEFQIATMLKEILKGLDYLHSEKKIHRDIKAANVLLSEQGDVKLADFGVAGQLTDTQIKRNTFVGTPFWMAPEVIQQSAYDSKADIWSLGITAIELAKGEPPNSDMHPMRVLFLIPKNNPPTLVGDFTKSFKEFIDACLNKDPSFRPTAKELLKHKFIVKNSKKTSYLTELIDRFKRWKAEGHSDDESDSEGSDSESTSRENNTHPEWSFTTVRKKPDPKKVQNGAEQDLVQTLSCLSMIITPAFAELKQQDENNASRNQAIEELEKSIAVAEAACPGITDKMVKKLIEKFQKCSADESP
Serine/threonine-protein kinase Nek2 (Homo sapiens), sequence (P51955 whole entry): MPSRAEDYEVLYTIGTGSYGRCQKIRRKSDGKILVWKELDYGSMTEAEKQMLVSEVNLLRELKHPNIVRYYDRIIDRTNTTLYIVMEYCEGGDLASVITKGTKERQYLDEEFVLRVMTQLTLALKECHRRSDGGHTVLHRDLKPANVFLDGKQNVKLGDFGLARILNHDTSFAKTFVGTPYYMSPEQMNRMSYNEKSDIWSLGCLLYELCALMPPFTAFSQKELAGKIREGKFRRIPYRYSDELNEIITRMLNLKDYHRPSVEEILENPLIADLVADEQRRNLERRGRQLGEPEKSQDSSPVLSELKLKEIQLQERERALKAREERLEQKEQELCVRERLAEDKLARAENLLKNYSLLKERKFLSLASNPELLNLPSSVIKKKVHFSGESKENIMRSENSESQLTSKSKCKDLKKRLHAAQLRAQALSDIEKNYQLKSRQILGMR
Interferon-induced, double-stranded RNA-activated protein kinase (Homo sapiens), sequence (P19525 whole entry): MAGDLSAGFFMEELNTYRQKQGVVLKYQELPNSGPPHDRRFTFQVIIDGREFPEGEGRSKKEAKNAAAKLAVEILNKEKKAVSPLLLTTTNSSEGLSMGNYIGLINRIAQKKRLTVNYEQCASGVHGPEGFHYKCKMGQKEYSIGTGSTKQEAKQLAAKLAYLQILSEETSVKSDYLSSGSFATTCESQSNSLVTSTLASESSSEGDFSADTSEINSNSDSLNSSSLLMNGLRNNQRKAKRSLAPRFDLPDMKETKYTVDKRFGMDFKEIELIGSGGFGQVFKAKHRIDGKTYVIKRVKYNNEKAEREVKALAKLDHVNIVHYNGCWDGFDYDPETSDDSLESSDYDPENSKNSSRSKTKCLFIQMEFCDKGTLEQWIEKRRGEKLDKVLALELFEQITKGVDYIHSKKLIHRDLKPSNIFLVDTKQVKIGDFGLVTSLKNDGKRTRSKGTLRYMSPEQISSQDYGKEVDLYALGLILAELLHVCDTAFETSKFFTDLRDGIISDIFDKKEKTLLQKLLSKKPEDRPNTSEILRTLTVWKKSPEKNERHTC
Proto-oncogene tyrosine-protein kinase receptor Ret (Homo sapiens), P07949 [V804M], sequence (P07949 whole entry V804M): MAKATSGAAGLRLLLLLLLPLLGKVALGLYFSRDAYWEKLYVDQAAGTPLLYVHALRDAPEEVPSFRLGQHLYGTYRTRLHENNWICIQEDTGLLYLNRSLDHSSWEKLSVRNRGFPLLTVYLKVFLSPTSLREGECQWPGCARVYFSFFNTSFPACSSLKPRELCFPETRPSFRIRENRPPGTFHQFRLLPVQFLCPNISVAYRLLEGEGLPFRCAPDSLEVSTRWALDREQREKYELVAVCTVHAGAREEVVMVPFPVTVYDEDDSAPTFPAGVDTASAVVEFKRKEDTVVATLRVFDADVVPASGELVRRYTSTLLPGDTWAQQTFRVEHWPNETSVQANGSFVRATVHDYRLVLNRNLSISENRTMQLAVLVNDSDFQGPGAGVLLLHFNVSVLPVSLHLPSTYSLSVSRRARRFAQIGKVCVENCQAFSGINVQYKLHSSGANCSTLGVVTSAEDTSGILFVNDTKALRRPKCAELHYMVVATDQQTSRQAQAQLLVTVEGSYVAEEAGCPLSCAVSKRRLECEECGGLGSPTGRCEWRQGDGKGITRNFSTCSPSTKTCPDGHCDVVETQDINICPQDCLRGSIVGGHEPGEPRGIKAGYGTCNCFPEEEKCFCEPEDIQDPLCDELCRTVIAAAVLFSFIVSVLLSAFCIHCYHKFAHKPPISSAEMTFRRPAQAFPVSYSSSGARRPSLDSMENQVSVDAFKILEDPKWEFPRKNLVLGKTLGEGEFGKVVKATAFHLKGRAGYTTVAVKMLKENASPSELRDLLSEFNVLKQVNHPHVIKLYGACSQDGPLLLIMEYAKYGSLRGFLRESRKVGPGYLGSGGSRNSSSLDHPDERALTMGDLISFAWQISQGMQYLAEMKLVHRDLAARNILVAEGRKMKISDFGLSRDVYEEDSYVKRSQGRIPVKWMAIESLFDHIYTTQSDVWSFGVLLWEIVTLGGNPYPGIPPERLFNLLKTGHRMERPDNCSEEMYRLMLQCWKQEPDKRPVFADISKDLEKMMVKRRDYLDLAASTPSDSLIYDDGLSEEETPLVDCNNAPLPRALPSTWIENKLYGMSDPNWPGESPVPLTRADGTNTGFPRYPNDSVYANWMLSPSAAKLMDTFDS
Tyrosine-protein kinase CSK, sequence (P41240 2-450 limits assumed): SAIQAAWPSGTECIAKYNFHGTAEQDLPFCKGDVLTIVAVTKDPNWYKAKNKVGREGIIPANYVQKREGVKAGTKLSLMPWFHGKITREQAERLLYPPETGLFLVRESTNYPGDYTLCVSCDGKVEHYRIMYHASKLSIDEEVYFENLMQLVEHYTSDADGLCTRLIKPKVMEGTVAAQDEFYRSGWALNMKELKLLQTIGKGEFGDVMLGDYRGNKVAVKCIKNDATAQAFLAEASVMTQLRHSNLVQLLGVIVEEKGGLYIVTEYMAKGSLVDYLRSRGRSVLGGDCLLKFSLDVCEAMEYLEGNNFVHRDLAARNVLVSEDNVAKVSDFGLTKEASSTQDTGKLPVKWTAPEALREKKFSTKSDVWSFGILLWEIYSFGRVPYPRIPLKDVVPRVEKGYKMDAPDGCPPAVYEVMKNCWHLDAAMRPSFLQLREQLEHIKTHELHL

In general, residual activity refers to the activity still measured, relative to the control. Lower therefore signals little activity left. As to `CCN1CCN(Cc2ccc(NC(=O)c3ccc(C)c(/C=C/c4cnc5[nH]ccc5c4OC)c3)cc2C(F)(F)F)CC1`, in assay [1], the residual activity is 100%.
The inhibition is the drop in the measured response relative to a control, in per cent. With `CCN1CCN(Cc2ccc(NC(=O)c3ccc(C)c(Oc4ccnc5[nH]ccc45)c3)cc2C(F)(F)F)CC1`, the figures for the inhibition in assay [2], in assay [3] and in assay [4] were 23.1%, 7.9% and 14%, respectively. In assay [5], this compound had a percent of control of 5.1%. The compound also had a residual activity in [6] of 1%.
Take `CNc1cc(Oc2cc(C(=O)Nc3cc(N4CCN(C)CC4)cc(C(F)(F)F)c3)ccc2C)ncn1`: the inhibition in assay [7] was -0.1%; in [8] it was -5.8%; in [9], 2.7%; in [10] it was 41.9%; in assay [11], 22.5%.
